Experiment in all cases: growth of human tumour cells (NCI), 48 h
Assay [1] deals with CCRF-CEM leukemia.
Assay [2] relates to KM12 colon.
In assay [3] the test system is OVCAR-3 ovarian.
In assay [4] the test system is RXF 393 renal.
For assay [5], the system named is SF-268 CNS.
For assay [6], the system named is SN12C renal.
The subject of assay [7] is UACC-62 melanoma.
In assay [8] the test system is OVCAR-8 ovarian.

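Dose response: 5 concentrations. Exposure: 48 h. Format: 96-well plates. Endpoint: linear interpolation; highest concentration if not reached. Abbreviation: GI50, concentration required for 50% inhibition of growth. TGI: total growth inhibition.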

For the compound `Cc1cc(=O)n(-c2ccccc2)c(=O)o1`, the TGI in assay [1], in assay [2], in assay [3], in assay [4], in assay [5] and in assay [6] was more than 100 µM throughout. Moreover, the TGI in assay [7] was more than 100 µM.

Turning to `COC(=O)[C@H]1[C@H]2C[C@@H]3c4[nH]c5cc(OC)ccc5c4CCN3C[C@H]2C[C@@H](OC(=O)c2cc(OC)c(OC)c(OC)c2)[C@@H]1OC`, the TGI is 44.1 µM in assay [1]; 41.7 µM in assay [2]; 32.9 µM in assay [3]; 49.6 µM in assay [8]; more than 100 µM in assay [5]; 36.9 µM in assay [7].

As for `O=C(c1ccccc1)C(c1ccccc1)C1(O)C(=O)Nc2ccccc21` (configuration not stated), the TGI in assay [1], in assay [3], in assay [8], in assay [4], in assay [5] and in assay [6] was more than 100 µM each time. The TGI in assay [7] was more than 100 µM.

Turning to `[N-]=[N+]=Nc1ccc(CCN2CCN(c3cccc(C(F)(F)F)c3)CC2)cc1I`, the TGI in assay [1], in assay [2], in assay [3], in assay [8], in assay [4] and in assay [5] was more than 100 µM each time. Also, the TGI in assay [6] and in assay [7] was more than 100 µM each time.

For `CC1(C)C(c2ccccc2)C12CCC1(C2=O)C(c2ccccc2)C1(C)C` (configuration not stated), the TGI is 36.5 µM in assay [1]; 43.5 µM in assay [3]; more than 100 µM in assay [8]; 45.7 µM in assay [4]; 97.7 µM in assay [5]; 73 µM in assay [6]. This compound registered a TGI in assay [7] of more than 100 µM.

For `CN1C(OCc2ccccc2)c2c(ccc3c2OCO3)C2C=Cc3cc4c(cc3C21)OCO4` (configuration not stated), the TGI in assay [1] was 1.05 µM; in assay [2] it was 2.22 µM; in assay [3] it was 1.97 µM; in assay [8], 1.05 µM; in assay [4], 2.31 µM; in assay [5], 1.58 µM. In addition, the results for the TGI in assay [6] and in assay [7] were 2.61 µM and 2.46 µM, respectively.

As for `C[C@@H](C1CCC2C3C(=CC(=O)[C@@]21C)[C@H](C)[C@]1(CCC(=O)O1)C1OC31)[C@H]1C[C@]2(C)O[C@@](C)(O1)OC2(C)C` (some centres not stated), the TGI in assay [1], in assay [8], in assay [4], in assay [5], in assay [6] and in assay [7] was more than 100 µM in each case.

In the case of `CCCN(CCCN)/[N+]([O-])=N\O`, the TGI in assay [1], in assay [2], in assay [3], in assay [8], in assay [4] and in assay [5] was more than 100 µM in each case. Moreover, the results for the TGI in assay [6] and in assay [7] were more than 100 µM and 0.831 µM, respectively.

On to `COc1c(C2=NC(C(C)C)CO2)ccc2ccccc12` (configuration not stated), for which the TGI is more than 100 µM in assay [1]; more than 100 µM in assay [2]; more than 100 µM in assay [3]; more than 100 µM in assay [8]; 86.8 µM in assay [4]; more than 100 µM in assay [5]. For the same compound, the TGI in assay [6] and in assay [7] was more than 100 µM in each case.

On to `CC(C)N(C(=O)C12C3C4C5C3C1(C(=O)N(C(C)C)C(C)C)C5(C#N)C42)C(C)C` (configuration not stated), for which the TGI was 51.6 µM in assay [1]; more than 100 µM in assay [2]; more than 100 µM in assay [3]; more than 100 µM in assay [8]; more than 100 µM in assay [5]; more than 100 µM in assay [6]. The compound further displayed a TGI in assay [7] of more than 100 µM.

On to `O=C1c2ccccc2C(=O)C2C1C1C(=O)c3ccccc3C(=O)C21` (configuration not stated), for which the TGI in assay [1], in assay [2], in assay [3], in assay [8], in assay [4] and in assay [5] was more than 100 µM in each case. Moreover, the TGI in assay [6] and in assay [7] was more than 100 µM each time.

Consider `N=CCCN(CCC=N)c1ccc(/C=C2\CN(NC(=O)c3ccc(Cl)cc3)C(c3ccccc3)=N2)cc1`, for which the TGI in assay [1], in assay [2], in assay [3], in assay [8], in assay [5] and in assay [6] was more than 100 µM throughout. The TGI in assay [7] was more than 100 µM.

For `CC(C)(C)N/N=C(\Cc1occc(=O)c1O)C(=O)Nc1ccc([N+](=O)[O-])cc1[N+](=O)[O-]`, the TGI in assay [1], in assay [2], in assay [8], in assay [4], in assay [5] and in assay [6] was more than 100 µM in each case. For the same compound, in assay [7], the TGI was more than 100 µM.

Regarding `COc1cc(=O)oc(/C=C/C=O)c1C`, the TGI is 88.3 µM in assay [1]; 38.2 µM in assay [2]; 33.4 µM in assay [3]; 81.1 µM in assay [8]; 34.8 µM in assay [4]; 28.2 µM in assay [5]. In addition, the TGI in assay [6] was 20.7 µM; in assay [7] it was 32.8 µM.

For the compound `Nc1ncnc2c1ncn2C1OC(CSC(F)(F)F)C(O)C1O` (configuration not stated), the TGI in assay [1], in assay [2], in assay [3], in assay [8], in assay [5] and in assay [6] was more than 100 µM each time. Moreover, the TGI in assay [7] is more than 100 µM.

Regarding `CCC1=C(C)/C(=C/c2[nH]c(C(Br)Br)c(CC)c2C)N=C1C(Br)Br`, the TGI was 55.3 µM in assay [1]; 80.4 µM in assay [2]; more than 100 µM in assay [3]; more than 100 µM in assay [8]; 78.9 µM in assay [4]; more than 100 µM in assay [5]. Also, the TGI in assay [6] and in assay [7] was more than 100 µM throughout.

As for `O=C(CC(=O)c1ccc([N+](=O)[O-])cc1)C(=O)Nc1nccs1`, the TGI in assay [1], in assay [2], in assay [3], in assay [8], in assay [4] and in assay [5] was more than 100 µM throughout. The TGI in assay [6] and in assay [7] was more than 100 µM in each case.

`CCCCSN1C(=O)c2ccccc2C1=S`: the TGI is 53 µM in assay [1]; more than 100 µM in assay [2]; more than 100 µM in assay [3]; more than 100 µM in assay [8]; more than 100 µM in assay [4]; more than 100 µM in assay [5]. The TGI in assay [6] and in assay [7] was more than 100 µM each time.

As for `Cc1ccc(NC(=O)CC/C(CC(=O)C(C)(C)C)=N/NC(=O)C(N)=O)cc1C`, the TGI in assay [1], in assay [2], in assay [3], in assay [8], in assay [4] and in assay [5] was more than 100 µM throughout. In addition, the TGI in assay [6] and in assay [7] was more than 100 µM each time.

Turning to `NC(N)=NS(=O)(=O)c1ccc(Nc2c3ccccc3nc3c(C(=O)N4CCN(CCO)CC4)cccc23)cc1`, the TGI in assay [1], in assay [2], in assay [3], in assay [8], in assay [4] and in assay [5] was more than 100 µM each time. The TGI in assay [6] and in assay [7] was more than 100 µM throughout.

With `N#CCCN(CCC#N)C(=O)c1cccc(C(=O)N(CCC#N)CCC#N)c1`, the TGI in assay [1] is more than 100 µM; in assay [2], more than 100 µM; in assay [3], more than 100 µM; in assay [8], more than 69.1 µM; in assay [4], 9.76 µM; in assay [5], more than 100 µM. Also, the TGI in assay [6] is more than 58.3 µM; in assay [7], more than 61.2 µM.

`N#CNC(N)=NCCO`: the TGI in assay [2] is more than 100 µM; in assay [3], more than 100 µM; in assay [8], more than 100 µM; in assay [4], 68.3 µM; in assay [5], more than 100 µM; in assay [6] it was more than 100 µM. In addition, the TGI in assay [7] was more than 100 µM.

As to `COc1ccc(CN2C(=O)C(Cc3cc(OC)c(OC)c(C)c3OC)NC(=O)/C2=C/c2cc(OC)c(OC)c(C)c2OC)cc1` (configuration not stated), the TGI in assay [1] is 71.1 µM; in assay [2], more than 100 µM; in assay [3], 82.2 µM; in assay [8], more than 100 µM; in assay [4], 71.2 µM; in assay [5] it was more than 100 µM. Further, the TGI in assay [6] and in assay [7] was more than 100 µM each time.

As to `CC(=O)[CH-]C(=O)c1ccccc1.CC(=O)[CH-]C(=O)c1ccccc1.COc1cccc([O-])c1[O-].[Ti+4]`, the GI50 was 6.42 µM in assay [1]; 33.4 µM in assay [2]; 40.5 µM in assay [3]; 42.4 µM in assay [8]; 30 µM in assay [4]; 47.6 µM in assay [5]. Besides, the GI50 in assay [6] is 49.1 µM; in assay [7], 39.9 µM. The TGI in assay [1], in assay [2], in assay [3], in assay [8], in assay [4] and in assay [5] was more than 100 µM each time. The TGI in assay [6] and in assay [7] was more than 100 µM in each case.

On to `[C-]#[O+].[Cl][Sn]([Cl])[Cl].[Cl][Sn]([Cl])[Cl].[Pt].c1ccc([PH+](c2ccccc2)c2ccccc2)cc1.c1ccc([PH+](c2ccccc2)c2ccccc2)cc1`, for which the GI50 was 42.3 µM in assay [2]; 62.1 µM in assay [3]; 22.5 µM in assay [8]; 1.57 µM in assay [4]; 23 µM in assay [5]; 56.6 µM in assay [6]. Moreover, the GI50 in assay [7] is 27.7 µM. In addition, the TGI in assay [2] is more than 100 µM; in assay [3], more than 100 µM; in assay [8], 65.7 µM; in assay [4] it was 9.82 µM; in assay [5], 51.1 µM; in assay [6], more than 100 µM. The compound also showed a TGI in assay [7] of more than 100 µM.

Turning to `O=C(Cc1nc2ccccc2c(=O)n1-c1c(Cl)cccc1Cl)c1ccncc1`, the TGI in assay [1] was 45.2 µM; in assay [2], 32.3 µM; in assay [3] it was 77.8 µM; in assay [8], more than 100 µM; in assay [4], 65.7 µM; in assay [5], more than 100 µM. The TGI in assay [6] was more than 100 µM; in assay [7] it was 56.6 µM.

For the compound `CN(C)c1ccc2c(c1)CN1C(=O)c3ccccc3C1=N2`, the GI50 in assay [2], in assay [3], in assay [8], in assay [4], in assay [6] and in assay [7] was more than 100 µM each time. Also, the TGI in assay [2], in assay [3], in assay [8], in assay [4], in assay [6] and in assay [7] was more than 100 µM in each case.

As for `Cc1nc2ccccc2c(=O)n1/N=C(\N=Nc1cc(Cl)ccc1Cl)c1cccc(-c2ccco2)c1`, the TGI in assay [1] was more than 10 µM; in assay [2] it was more than 100 µM; in assay [3] it was more than 100 µM; in assay [8] it was more than 100 µM; in assay [4], more than 100 µM; in assay [5], more than 100 µM. Further, the TGI in assay [6] and in assay [7] was more than 100 µM in each case.

Consider `CC1(C)CCC[C@@]2(C)C1C[C@H](O)[C@@]1(C)O[C@@](C)([C@H](O)CO)CCC21` (some centres not stated), for which the TGI in assay [1], in assay [2], in assay [3], in assay [8], in assay [5] and in assay [6] was more than 100 µM in each case. Also, in assay [7], the TGI was found to be 96.1 µM.

As to `Cc1ccc(C2CC(c3ccc([N+](=O)[O-])cc3)=Nc3ccccc3S2)cc1` (configuration not stated), the TGI is 34.2 µM in assay [1]; 75.2 µM in assay [2]; 99.7 µM in assay [3]; 72.3 µM in assay [8]; 38.9 µM in assay [4]; more than 100 µM in assay [5]. Also, the TGI in assay [6] and in assay [7] was more than 100 µM throughout.

With `CC1(C)C(c2ccccc2)=NN(O)c2ccccc21`, the TGI in assay [1], in assay [2], in assay [3], in assay [8], in assay [4] and in assay [5] was more than 100 µM in each case. Also, the TGI in assay [7] was more than 100 µM.

For the origin of these results see PubChem BioAssay (NCI).
